Patent US4120864A, “1,2,4-4H-triazole derivatives” (Rohm and Haas Company, priority 1972, dated 1978)
Where a name gives a salt, the structure may show the parent alone. Read-outs that look alike come from different tables or passages of the source.

Tests used:
[1] = system: wheat leaf rust, Puccinia recondita; experiment: whole plant or invertebrate; format: in vivo; conditions: foliar; for pest or weed control at 280.212 g/ha: read-out: % Control (without rain), foliar, 0.25 lb.; for pest or weed control at 1120.85 g/ha: read-out: % Control (without rain), foliar, 1 lb.
[2] = system: wheat leaf rust, Puccinia recondita; experiment: whole plant or invertebrate; format: in vivo; conditions: foliar; for pest or weed control at 280.212 g/ha: read-out: % Control (with 1" of rain), foliar, 0.25 lb., 1" of rain; for pest or weed control at 1120.85 g/ha: read-out: % Control (with 1" of rain), foliar, 1 lb., 1" of rain

Row | Molecule | % Control (without rain) ([1]; 0.25 lb.) [%] | % Control (without rain) ([1]; 1 lb.) [%] | % Control (with 1" of rain) ([2]; 0.25 lb.) [%] | % Control (with 1" of rain) ([2]; 1 lb.) [%] | pest or weed control at 280.212 g/ha [1] [%] | pest or weed control at 1120.85 g/ha [1] [%] | pest or weed control at 280.212 g/ha [2] [%] | pest or weed control at 1120.85 g/ha [2] [%]
1 | 4-(1,3-dihydroxypropyl)-1,2,4-triazole [Example 22] | 90 | 90 | 0 | 0 |  |  |  | 
2 | c1nncn1C1CC1 [Example 2, 4-cyclopropyl-1,2,4-triazole] |  |  |  |  | 90 | 90 | 40 | 0
3 | CCC(C)n1cnnc1 (stereo not shown) [Example 5, 4-sec-butyl-1,2,4-triazole] |  |  |  |  | 97 | 99 | 78 | 69
4 | CC(C)(C)n1cnnc1 [Example 6, 4-t-butyl-1,2,4-triazole] |  |  |  |  | 100 | 100 | 95 | 95
5 | CCCCCn1cnnc1 [Example 7, 4-n-pentyl-1,2,4-triazole] |  |  |  |  | 100 | 100 | 100 | 100
6 | CCCCCCCCCCn1cnnc1 [Example 12, 4-n-decyl-1,2,4-triazole] |  |  |  |  | 57 | 100 | 48 | 78
7 | CC=CCn1cnnc1 [Example 14, 4-(2-butenyl)-1,2,4-triazole] |  |  |  |  | 100 | 100 | 99 | 100
8 | C#CCn1cnnc1 [Example 15, 4-propargyl-1,2,4-triazole] |  |  |  |  | 100 | 100 | 99 | 100
9 | C#CC(C)(C)n1cnnc1 [Example 16, 4-(1,1-dimethylpropargyl)-1,2,4-triazole] |  |  |  |  | 0 | 0 | 0 | 0
10 | OCCn1cnnc1 [Example 17, 4-(2-hydroxyethyl)-1,2,4-triazole] |  |  |  |  | 60 | 5 | 0 | 0
11 | CCC(O)Cn1cnnc1 (stereo not shown) [Example 19, 4-(2-hydroxybutyl)-1,2,4-triazole] |  |  |  |  | 65 | 65 | 0 | 0
12 | CC(O)CCn1cnnc1 (stereo not shown) [Example 20, 4-(3-hydroxybutyl)-1,2,4-triazole] |  |  |  |  | 0 | 0 | 0 | 0
13 | OCCCCn1cnnc1 [Example 21, 4-(4-hydroxybutyl)-1,2,4-triazole] |  |  |  |  | 10 | 10 | 0 | 0
14 | Clc1ccc(OCCn2cnnc2)cc1 [Example 26] |  |  |  |  | 0 | 10 | 0 | 0
15 | Clc1ccc(OCCn2cnnc2)c(Cl)c1 [Example 29, 4-(2-(2,4-dichlorophenoxy)ethyl)-1,2,4-triazole] |  |  |  |  | 0 | 20 | 0 | 0
16 | Clc1ccc(SCCn2cnnc2)cc1 [Example 30, 4-(2-(4-chlorothiophenoxy)ethyl)-1,2,4-triazole] |  |  |  |  | 90 | 95 | 35 | 75
17 | Clc1ccc(SCCn2cnnc2)cc1Cl [Example 31, 4-(2-(3,4-dichlorothiophenoxy)ethyl)-1,2,4-triazole] |  |  |  |  | 95 | 98 | 45 | 60
18 | COc1ccc(SCCn2cnnc2)cc1 [Example 32, 4-(2-(4-methoxythiophenoxy)ethyl)-1,2,4-trianzole] |  |  |  |  | 95 | 99 | 30 | 85
19 | c1ccc(CCn2cnnc2)cc1 [Example 33, 4-phenethyl-1,2,4-triazole] |  |  |  |  | 100 | 100 |  | 
20 | COc1ccc(CCn2cnnc2)cc1 [Example 34, 4-(4-methoxyphenethyl)-1,2,4-triazole] |  |  |  |  | 15 | 25 | 15 | 15
21 | CCN(CC)CCn1cnnc1 [Example 35] |  |  |  |  | 30 | 40 | 0 | 10

Row | Molecule | % Control (without rain) ([1]; 0.25 lb.) [%] | % Control (without rain) ([1]; 1 lb.) [%] | % Control (with 1" of rain) ([2]; 0.25 lb.) [%] | % Control (with 1" of rain) ([2]; 1 lb.) [%] | pest or weed control at 280.212 g/ha [1] [%] | pest or weed control at 1120.85 g/ha [1] [%] | pest or weed control at 280.212 g/ha [2] [%] | pest or weed control at 1120.85 g/ha [2] [%]
22 | c1nc(CCn2cnnc2)c[nH]1 [Example 36, 4-[2-(4-imidazolyl)]-1,2,4-triazole] |  |  |  |  | 0 | 10 | 0 | 10
23 | c1nncn1CCCCn1cnnc1 [Example 37, 4-[4-(1,2,4-triazyl)butyl]-1,2,4-triazole] |  |  |  |  | 0 | 0 | 5 | 0
24 | CCOC(=O)CC(C)n1cnnc1 (stereo not shown) [Example 40, 4-(1-methyl-2-ethoxycarbonylethyl)-1,2,4-triazole] |  |  |  |  | 40 | 40 | 10 | 10
25 | O=C(O)CCn1cnnc1 [Example 41, 4-(2-carboxyethyl)-1,2,4-triazole] |  |  |  |  | 85 | 90 | 0 | 0
26 | O=C(O)CCCn1cnnc1 [Example 44, 4-(3-carboxypropyl)-1,2,4-triazole] |  |  |  |  | 20 | 75 | 35 | 5
27 | CC(C)OCCCn1cnnc1 [Example 48, 4-(3-isopropoxypropyl)-1,2,4-triazole] |  |  |  |  | 0 | 0 | 0 | 0
28 | COc1ccc(Cn2cnnc2)cc1 [Example 50, 4-(4-methoxybenzyl)-1,2,4-triazole] |  |  |  |  | 100 |  |  | 100
29 | Clc1ccc(Cn2cnnc2)c(Cl)c1 [Example 52, 4-(2,4-dichlorobenzyl)-1,2,4-triazole] |  |  |  |  | 0 | 20 | 5 | 10
30 | Clc1ccc(Cn2cnnc2)cc1Cl [Example 53, 4-(3,4-dichloroenzyl)-1,2,4-triazole] |  |  |  |  | 60 | 70 | 10 | 30
31 | c1ccc(-n2cnnc2)cc1 [Example 54, 4-phenyl-1,2,4-triazole] |  |  |  |  | 75 | 90 | 25 | 85
32 | Clc1cccc(-n2cnnc2)c1 [Example 55, 4-(3-chlorophenyl)-1,2,4-triazole hydrochloride] |  |  |  |  | 100 | 100 |  | 
33 | Clc1ccc(-n2cnnc2)c(Cl)c1 [Example 56, 4-(2,4-dichlorophenyl)-1,2,4-triazole] |  |  |  |  | 90 | 65 | 0 | 5
34 | O=[N+]([O-])c1cccc(-n2cnnc2)c1 [Example 58, 4-(3-nitrophenyl)-1,2,4-triazole] |  |  |  |  | 80 | 80 | 0 | 0
35 | O=[N+]([O-])c1ccc(-n2cnnc2)cc1 [Example 59, 4-(4-nitrophenyl)-1,2,4-triazole] |  |  |  |  | 97 | 98 | 58 | 79
36 | COc1ccc(-n2cnnc2)cc1 [Example 60, 4-(4-methoxyphenyl)-1,2,4-triazole] |  |  |  |  | 100 | 100 | 95 | 97
37 | c1cc(-n2cnnc2)ccn1 [Example 61, 4-(4-pyridyl)-1,2,4-triazole] |  |  |  |  | 10 | 10 | 0 | 0
38 | c1ccc(-n2cnnc2)nc1 [Example 62, 4-(2-pyridyl)-1,2,4-triazole] |  |  |  |  | 100 | 100 |  | 99
39 | c1nncn1N1CCOCC1 [Example 64, 4-morpholino-1,2,4-triazole] |  |  |  |  | 88 | 94 |  | 
40 | c1nncn1-n1cnnc1 [Example 65] |  |  |  |  | 64 | 78 |  | 
41 | O=C(Sc1nncn1-c1ccccc1)c1cccc([N+](=O)[O-])c1 [Example 130, 3-(3-nitrobenzoylmercapto)-4-phenyl-1,2,4-triazole] |  |  |  |  | 97 | 100 |  | 
